Test results reported in ChEMBL document CHEMBL5634077, “Recent advances in 1,2,3- and 1,2,4-triazole hybrids as antimicrobials and their SAR: A critical review” (2023).
Converted amounts (≈) assume the structure as drawn.

Legend:
Type in all cases: functional
[1] = system: Staphylococcus epidermidis; experiment: Antibacterial activity against Methicillin-sensitive Staphylococcus epidermidis assessed as bacterial growth inhibition
[2] = system: Staphylococcus epidermidis; experiment: Antibacterial activity against Methicillin-resistant Staphylococcus epidermidis assessed as bacterial growth inhibition
Staphylococcus aureus [3] = experiment: Antibacterial activity against Methicillin-resistant Staphylococcus aureus assessed as bacterial growth inhibition
Staphylococcus aureus [4] = experiment: Antibacterial activity against Methicillin-sensitive Staphylococcus aureus assessed as bacterial growth inhibition
Enterococcus faecalis = experiment: Antibacterial activity against Enterococcus faecalis assessed as bacterial growth inhibition
Enterococcus faecium = experiment: Antibacterial activity against Enterococcus faecium assessed as inhibition of bacterial growth
Staphylococcus aureus [5] = experiment: Antibacterial activity against Staphylococcus aureus assessed as diameter of inhibition zone incubated for 24 hrs by well diffusion assay
Bacillus subtilis [6] = experiment: Antibacterial activity against Bacillus subtilis RCMB 010069 assessed as diameter of inhibition zone incubated for 24 hrs by well diffusion assay
Proteus vulgaris = experiment: Antibacterial activity against Proteus vulgaris RCMB 004 assessed as diameter of inhibition zone incubated for 24 hrs by well diffusion assay
Escherichia coli [7] = experiment: Antibacterial activity against Escherichia coli RCMB 010052 assessed as diameter of inhibition zone incubated for 24 hrs by well diffusion assay
Aspergillus flavus = experiment: Antifungal activity against Aspergillus flavus assessed as diameter of inhibition zone incubated for 24 hrs by well diffusion assay
Geotrichum candidum = experiment: Antifungal activity against Geotrichum candidum RCMB 052006 assessed as diameter of inhibition zone incubated for 24 hrs by well diffusion assay
Bacillus subtilis [8] = experiment: Antibacterial activity against Bacillus subtilis MTCC 441 assessed as reduction in microbial growth
Escherichia coli [9] = experiment: Antibacterial activity against Escherichia coli MTCC 16521 assessed as reduction in microbial growth
[10] = system: Staphylococcus epidermidis; experiment: Antibacterial activity against Staphylococcus epidermidis assessed as reduction in microbial growth
Candida albicans = experiment: Antifungal activity against Candida albicans MTCC 227 assessed as inhibition of fungal growth
Aspergillus niger = experiment: Antifungal activity against Aspergillus niger MTCC 8189 assessed as inhibition of fungal growth

Structure (SMILES)	MIC [1]	MIC [2]	MIC (Staphylococcus aureus [3])	MIC (Staphylococcus aureus [4])	MIC (Enterococcus faecalis)	MIC (Enterococcus faecium)	MIC (Bacillus subtilis [8])	MIC (Escherichia coli [9])	MIC [10]	MIC (Candida albicans)	MIC (Aspergillus niger)	other results
CCO/N=C1/C(=O)N(Cc2cn(CC(=O)N3CCC[C@@H]4CN(c5c(F)cc6c(=O)c(C(=O)O)cn(C7CC7)c6c5OC)C[C@@H]43)nn2)c2cc(C)ccc21	0.06 µg/mL (≈ 0.0826 µM)	0.06 µg/mL (≈ 0.0826 µM)	0.06 µg/mL (≈ 0.0826 µM)	0.06 µg/mL (≈ 0.0826 µM)	0.06 µg/mL (≈ 0.0826 µM)	0.06 µg/mL (≈ 0.0826 µM)	–	–	–	–	–	–
Cc1c(-c2cc(-c3ccccn3)nc(S)n2)nnn1-c1ccc(-n2nnc(-c3cc(-c4ccccn4)nc(S)n3)c2C)cc1	–	–	–	–	–	–	–	–	–	–	–	diameter of the inhibition zone (DIZ) (Staphylococcus aureus [5]): 23.3 mm; diameter of the inhibition zone (DIZ) (Bacillus subtilis [6]): 36.2 mm; diameter of the inhibition zone (DIZ) (Proteus vulgaris): 23.3 mm; diameter of the inhibition zone (DIZ) (Escherichia coli [7]): 35.2 mm; diameter of the inhibition zone (DIZ) (Aspergillus flavus): 24.02 mm; diameter of the inhibition zone (DIZ) (Geotrichum candidum): 26.3 mm
CO/N=C1/C(=O)N(Cc2cn(CC(=O)N3CCC[C@@H]4CN(c5c(F)cc6c(=O)c(C(=O)O)cn(C7CC7)c6c5OC)C[C@@H]43)nn2)c2cc(F)ccc21	0.06 µg/mL (≈ 0.0837 µM)	0.06 µg/mL (≈ 0.0837 µM)	0.06 µg/mL (≈ 0.0837 µM)	0.06 µg/mL (≈ 0.0837 µM)	0.06 µg/mL (≈ 0.0837 µM)	0.06 µg/mL (≈ 0.0837 µM)	–	–	–	–	–	–
COc1c(N2C[C@H]3CCCN(C(=O)Cn4cc(CN5C(=O)C(=O)c6ccc(F)cc65)nn4)[C@H]3C2)c(F)cc2c(=O)c(C(=O)O)cn(C3CC3)c12	0.06 µg/mL (≈ 0.0873 µM)	0.06 µg/mL (≈ 0.0873 µM)	0.06 µg/mL (≈ 0.0873 µM)	0.06 µg/mL (≈ 0.0873 µM)	0.06 µg/mL (≈ 0.0873 µM)	0.06 µg/mL (≈ 0.0873 µM)	–	–	–	–	–	–
Cc1c(C(=O)/C=C/c2ccncc2)nnn1-c1ccc(-n2nnc(C(=O)/C=C/c3ccncc3)c2C)cc1	–	–	–	–	–	–	–	–	–	–	–	diameter of the inhibition zone (DIZ) (Staphylococcus aureus [5]): 19.2 mm; diameter of the inhibition zone (DIZ) (Bacillus subtilis [6]): 28.2 mm; diameter of the inhibition zone (DIZ) (Proteus vulgaris): 17.3 mm; diameter of the inhibition zone (DIZ) (Escherichia coli [7]): 26.3 mm; diameter of the inhibition zone (DIZ) (Aspergillus flavus): 18.43 mm; diameter of the inhibition zone (DIZ) (Geotrichum candidum): 21.3 mm
O=C(NCc1cn(Cc2cccc(Cn3cc(CNC(=O)Nc4ccc(Cl)cc4)nn3)c2)nn1)Nc1ccc(Cl)cc1	–	–	–	–	–	–	6 µM	6 µM	6 µM	6 µM (≈ 3.63 µg/mL)	6 µM (≈ 3.63 µg/mL)	–
O=C(NCc1cn(CCCCn2cc(CNC(=O)Nc3ccc(F)cc3)nn2)nn1)Nc1ccc(F)cc1	–	–	–	–	–	–	6 µM	6 µM	6 µM	6 µM (≈ 3.15 µg/mL)	6 µM (≈ 3.15 µg/mL)	–
CO/N=C1/C(=O)N(Cc2cn(CC(=O)N3CCC[C@@H]4CN(c5c(F)cc6c(=O)c(C(=O)O)cn(C7CC7)c6c5OC)C[C@@H]43)nn2)c2ccccc21	0.06 µg/mL (≈ 0.0859 µM)	0.06 µg/mL (≈ 0.0859 µM)	0.06 µg/mL (≈ 0.0859 µM)	0.06 µg/mL (≈ 0.0859 µM)	0.06 µg/mL (≈ 0.0859 µM)	0.06 µg/mL (≈ 0.0859 µM)	–	–	–	–	–	–
Cc1c(-c2cc(-c3c[nH]c4ccccc34)[nH]n2)nnn1-c1ccc(-n2nnc(-c3cc(-c4c[nH]c5ccccc45)[nH]n3)c2C)cc1	–	–	–	–	–	–	–	–	–	–	–	diameter of the inhibition zone (DIZ) (Staphylococcus aureus [5]): 19.3 mm; diameter of the inhibition zone (DIZ) (Bacillus subtilis [6]): 33.5 mm; diameter of the inhibition zone (DIZ) (Proteus vulgaris): 19.2 mm; diameter of the inhibition zone (DIZ) (Escherichia coli [7]): 28.4 mm; diameter of the inhibition zone (DIZ) (Aspergillus flavus): 19.5 mm; diameter of the inhibition zone (DIZ) (Geotrichum candidum): 23.9 mm
COc1c(N2C[C@H]3CCCN(C(=O)Cn4cc(CN5C(=O)C(=O)c6ccc(C)cc65)nn4)[C@H]3C2)c(F)cc2c(=O)c(C(=O)O)cn(C3CC3)c12	0.06 µg/mL (≈ 0.0878 µM)	0.06 µg/mL (≈ 0.0878 µM)	0.06 µg/mL (≈ 0.0878 µM)	0.06 µg/mL (≈ 0.0878 µM)	0.06 µg/mL (≈ 0.0878 µM)	0.06 µg/mL (≈ 0.0878 µM)	–	–	–	–	–	–
Cc1c(-c2cc(-c3c[nH]c4ccccc34)nc(S)n2)nnn1-c1ccc(-n2nnc(-c3cc(-c4c[nH]c5ccccc45)nc(S)n3)c2C)cc1	–	–	–	–	–	–	–	–	–	–	–	diameter of the inhibition zone (DIZ) (Staphylococcus aureus [5]): 20.6 mm; diameter of the inhibition zone (DIZ) (Bacillus subtilis [6]): 37.8 mm; diameter of the inhibition zone (DIZ) (Proteus vulgaris): 22.2 mm; diameter of the inhibition zone (DIZ) (Escherichia coli [7]): 30.9 mm; diameter of the inhibition zone (DIZ) (Aspergillus flavus): 19.1 mm; diameter of the inhibition zone (DIZ) (Geotrichum candidum): 21.1 mm
O=C(NCc1cn(CCCn2cc(CNC(=O)Nc3ccc(F)cc3)nn2)nn1)Nc1ccc(F)cc1	–	–	–	–	–	–	6 µM	6 µM	6 µM	6 µM (≈ 3.06 µg/mL)	6 µM (≈ 3.06 µg/mL)	–
COc1c(N2C[C@@H]3CCCN[C@@H]3C2)c(F)cc2c(=O)c(C(=O)O)cn(C3CC3)c12 [MOXIFLOXACIN]	0.06 µg/mL (≈ 0.149 µM)	0.06 µg/mL (≈ 0.149 µM)	0.06 µg/mL (≈ 0.149 µM)	0.06 µg/mL (≈ 0.149 µM)	0.06 µg/mL (≈ 0.149 µM)	0.06 µg/mL (≈ 0.149 µM)	–	–	–	–	–	–
COc1ccc(NC(=O)NCc2cn(CCCCn3cc(CNC(=O)Nc4ccc(OC)cc4)nn3)nn2)cc1	–	–	–	–	–	–	6 µM	6 µM	6 µM	6 µM (≈ 3.29 µg/mL)	5 µM (≈ 2.74 µg/mL)	–
O=C(NCc1cn(CCCCCn2cc(CNC(=O)Nc3ccc(F)cc3)nn2)nn1)Nc1ccc(F)cc1	–	–	–	–	–	–	6 µM	6 µM	6 µM	6 µM (≈ 3.23 µg/mL)	6 µM (≈ 3.23 µg/mL)	–
O=C(NCc1cn(CCCCCCn2cc(CNC(=O)Nc3ccc(Cl)cc3)nn2)nn1)Nc1ccc(Cl)cc1	–	–	–	–	–	–	6 µM	6 µM	6 µM	6 µM (≈ 3.51 µg/mL)	6 µM (≈ 3.51 µg/mL)	–
CCO/N=C1/C(=O)N(Cc2cn(CC(=O)N3CCC[C@@H]4CN(c5c(F)cc6c(=O)c(C(=O)O)cn(C7CC7)c6c5OC)C[C@@H]43)nn2)c2cccc(F)c21	0.06 µg/mL (≈ 0.0821 µM)	0.06 µg/mL (≈ 0.0821 µM)	0.06 µg/mL (≈ 0.0821 µM)	0.06 µg/mL (≈ 0.0821 µM)	0.06 µg/mL (≈ 0.0821 µM)	0.06 µg/mL (≈ 0.0821 µM)	–	–	–	–	–	–
O=C(NCc1cn(CCCCCCn2cc(CNC(=O)Nc3ccc(F)cc3)nn2)nn1)Nc1ccc(F)cc1	–	–	–	–	–	–	6 µM	6 µM	6 µM	6 µM (≈ 3.32 µg/mL)	6 µM (≈ 3.32 µg/mL)	–
CCO/N=C1/C(=O)N(Cc2cn(CC(=O)N3CCC[C@@H]4CN(c5c(F)cc6c(=O)c(C(=O)O)cn(C7CC7)c6c5OC)C[C@@H]43)nn2)c2ccccc21	0.06 µg/mL (≈ 0.0842 µM)	0.06 µg/mL (≈ 0.0842 µM)	0.06 µg/mL (≈ 0.0842 µM)	0.06 µg/mL (≈ 0.0842 µM)	0.06 µg/mL (≈ 0.0842 µM)	0.06 µg/mL (≈ 0.0842 µM)	–	–	–	–	–	–
CO/N=C1/C(=O)N(Cc2cn(CC(=O)N3CCC[C@@H]4CN(c5c(F)cc6c(=O)c(C(=O)O)cn(C7CC7)c6c5OC)C[C@@H]43)nn2)c2cc(C)ccc21	0.06 µg/mL (≈ 0.0842 µM)	0.06 µg/mL (≈ 0.0842 µM)	0.06 µg/mL (≈ 0.0842 µM)	0.06 µg/mL (≈ 0.0842 µM)	0.06 µg/mL (≈ 0.0842 µM)	0.06 µg/mL (≈ 0.0842 µM)	–	–	–	–	–	–
CO/N=C1/C(=O)N(Cc2cn(CC(=O)N3CCC[C@@H]4CN(c5c(F)cc6c(=O)c(C(=O)O)cn(C7CC7)c6c5OC)C[C@@H]43)nn2)c2cccc(F)c21	0.06 µg/mL (≈ 0.0837 µM)	0.06 µg/mL (≈ 0.0837 µM)	0.06 µg/mL (≈ 0.0837 µM)	0.06 µg/mL (≈ 0.0837 µM)	0.06 µg/mL (≈ 0.0837 µM)	0.06 µg/mL (≈ 0.0837 µM)	–	–	–	–	–	–
CCO/N=C1/C(=O)N(Cc2cn(CC(=O)N3CCC[C@@H]4CN(c5c(F)cc6c(=O)c(C(=O)O)cn(C7CC7)c6c5OC)C[C@@H]43)nn2)c2cc(F)ccc21	0.06 µg/mL (≈ 0.0821 µM)	0.06 µg/mL (≈ 0.0821 µM)	0.06 µg/mL (≈ 0.0821 µM)	0.06 µg/mL (≈ 0.0821 µM)	0.06 µg/mL (≈ 0.0821 µM)	0.06 µg/mL (≈ 0.0821 µM)	–	–	–	–	–	–
COc1c(N2C[C@H]3CCCN(C(=O)Cn4cc(CN5C(=O)C(=O)c6ccccc65)nn4)[C@H]3C2)c(F)cc2c(=O)c(C(=O)O)cn(C3CC3)c12	0.06 µg/mL (≈ 0.0896 µM)	0.06 µg/mL (≈ 0.0896 µM)	0.06 µg/mL (≈ 0.0896 µM)	0.06 µg/mL (≈ 0.0896 µM)	0.06 µg/mL (≈ 0.0896 µM)	0.06 µg/mL (≈ 0.0896 µM)	–	–	–	–	–	–
COc1c(N2C[C@H]3CCCN(C(=O)Cn4cc(CN5C(=O)C(=O)c6c(F)cccc65)nn4)[C@H]3C2)c(F)cc2c(=O)c(C(=O)O)cn(C3CC3)c12	0.06 µg/mL (≈ 0.0873 µM)	0.06 µg/mL (≈ 0.0873 µM)	0.06 µg/mL (≈ 0.0873 µM)	0.06 µg/mL (≈ 0.0873 µM)	0.06 µg/mL (≈ 0.0873 µM)	0.06 µg/mL (≈ 0.0873 µM)	–	–	–	–	–	–
COc1ccc(NC(=O)NCc2cn(CCCn3cc(CNC(=O)Nc4ccc(OC)cc4)nn3)nn2)cc1	–	–	–	–	–	–	6 µM	6 µM	6 µM	6 µM (≈ 3.21 µg/mL)	6 µM (≈ 3.21 µg/mL)	–
